In patent US20050064382A1, “Method of prevention of lysosomal leakage in eukaryotic cells by using 6-methyluracil based water-soluble compounds and method of producing thereof” (priority 2002, published 2005):

Experiments:
Drosophila [1] = test: X-ray caused loss of X-chromosomes in late oocyte of Drosophila; assay type: in vivo; conditions: 1000 Roentgens
Drosophila [2] = test: Sterol-deficit diet and both drugs: frequency of X-chromosomes loss in late oocytes of Drosophila; assay type: in vivo; conditions: yeast of wild type
Source text: The classic genetic model was used, based on the well-known method: the frequency of mutations in Drosophila (fruit flies) caused by X-rays. It is known that the frequency of these mutations can be increased by adding to the food of females certain membrane destabilizers (we used Polyene Antibiotics—Amphotericin B), or by the use of a special diet. Like all insects, Drosophila obtain all of their sterols from food (yeast for Drosophila). A special diet rich with Nistatin (Polyene antibiotic) resistant yeast was used.
The frequency of the loss of x-chromosomes (males excluded) was measured after crossing with the […]. Females were given a dose of 1000 Roentgens 5 days before being given the food additive or “special diet”.
Influence of sterol-deficit diet and both drugs on the frequency of X-chromosomes loss in late oocytes of Drosophila. Groups 1-4 received yeast of wild type, groups 5,6 (diet) received nistatin resistant yeasts meaning groups 5,6 had abnormal sterols in membranes: […]

Water solubility = assay type: physicochemical

| SMILES | Frequency of the loss of X-chromosomes, % (Drosophila [1]; 1.0 mkg/female) | Frequency of the loss of X-chromosomes, % (Drosophila [1]; 5.0 mkg/female) | Frequency of the loss of X-chromosomes, % (Drosophila [1]; 10.0 mkg/female) | Frequency of the loss of X-chromosomes, % (Drosophila [1]; 15.0 mkg/female) | Frequency of the loss of X-chromosomes, % (Drosophila [1]; 20.0 mkg/female) | Frequency of X-Chromosomes loss, % (Drosophila [2]) | solubility (Water solubility) |
| --- | --- | --- | --- | --- | --- | --- | --- |
| C[C@@H]1[C@H](O)[C@@H](C)/C=C/C=C/C=C/C=C/C=C/C=C/C=C/[C@H](O[C@@H]2O[C@H](C)[C@@H](O)[C@H](N)[C@@H]2O)C[C@@H]2O[C@](O)(C[C@@H](O)C[C@@H](O)[C@H](O)CC[C@@H](O)C[C@@H](O)CC(=O)O[C@H]1C)C[C@H](O)[C@H]2C(=O)O [Amphotericin B, reference compound] | 1.4 ± 0.19% | 2.1 ± 0.21% | 3.6 ± 0.35% | 4.1 ± 0.41% | 4.2 ± 0.61% | 4.3 ± 0.29% |  |
| O=C1CCC(N2C(=O)c3ccccc3C2=O)C(=O)N1 (stereo not shown) [thalidomides, thalidomide] |  |  |  |  |  |  | < 3000 µg/mL |
